Measurements: publication PMC3446968 (PLoS ONE, 2012)
Read-outs that look alike come from different tables or passages of the source. One block for each molecule: values may come before it. No end group written: not given here.

Columns and labels:
Sirt3 = conditions: read-out: KM apparent affinity for cosubstrate; cited from earlier work
human Sirt3 = molecular target: T1, human Sirt3 (Homo sapiens, UniProt Q9NTG7); test: Binding analysis by microscale thermophoresis, Sirt3
T1 construct: human Sirt3 (residues 114-380); 6x His tag with TEV protease cleavage site (N); made in house; host or cells: E. coli BL21DE3 Rosetta 2
T1 sequence (Q9NTG7 114-380): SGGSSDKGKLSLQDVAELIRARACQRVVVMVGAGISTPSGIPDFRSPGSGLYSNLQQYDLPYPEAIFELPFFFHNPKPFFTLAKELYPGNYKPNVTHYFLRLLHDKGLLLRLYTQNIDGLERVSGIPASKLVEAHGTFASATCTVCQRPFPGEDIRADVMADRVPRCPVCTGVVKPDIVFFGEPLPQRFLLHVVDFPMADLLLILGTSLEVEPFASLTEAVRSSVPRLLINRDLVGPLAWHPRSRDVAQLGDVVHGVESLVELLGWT
Description: Non-bound dye was removed using a Nap25 column (GE Healthcare). Dissociation constants were determined from microscale thermophoresis using a Monolith NT.115 (NanoTemper Technologies, Munich, Germany). […] Dissociation constants were determined by non-linear fitting in GraFit.

human Sirt5 [1] = molecular target: T2, human Sirt5 (Homo sapiens, UniProt Q9NXA8); test: Binding analysis by microscale thermophoresis, Sirt5
T2 construct: (residues 34- 302); 6x His tag with TEV protease cleavage site (N); made in house; host or cells: E. coli BL21DE3 Rosetta 2
T2 sequence (Q9NXA8 34-302): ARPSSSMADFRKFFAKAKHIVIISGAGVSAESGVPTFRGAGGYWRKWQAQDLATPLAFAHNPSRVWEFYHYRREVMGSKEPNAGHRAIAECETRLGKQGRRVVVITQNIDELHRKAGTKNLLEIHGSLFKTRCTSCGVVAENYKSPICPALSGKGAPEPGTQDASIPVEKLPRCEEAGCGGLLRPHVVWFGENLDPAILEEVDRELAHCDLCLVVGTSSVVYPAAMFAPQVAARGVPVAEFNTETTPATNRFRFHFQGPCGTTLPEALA
Description: For labeling, 100 µM Sirtuin were incubated with 200 µM fluorescein isothiocyanate (Thermo Fisher) in 20 mM HEPES pH 7.5, 150 mM NaCl over night at 4°C in the dark. Non-bound dye was removed using a Nap25 column (GE Healthcare). Dissociation constants were determined from microscale thermophoresis using a Monolith NT.115 (NanoTemper Technologies, Munich, Germany). […] Dissociation constants were determined by non-linear fitting in GraFit.

Sirt5Zf = molecular target: T3, Sirt5Zf (Danio rerio, UniProt Q6DHI5); test: MS-based peptide deacylation assay, zebrafish Sirt5; format: biochemical; conditions: deacetylation, CPS1 peptide (Fig. S3)
T3 construct: zebrafish Sirt5 (residues 30- 298); 6x His tag with TEV protease cleavage site (N); made in house; host or cells: E. coli BL21DE3 Rosetta 2
T3 sequence (Q6DHI5 30-298): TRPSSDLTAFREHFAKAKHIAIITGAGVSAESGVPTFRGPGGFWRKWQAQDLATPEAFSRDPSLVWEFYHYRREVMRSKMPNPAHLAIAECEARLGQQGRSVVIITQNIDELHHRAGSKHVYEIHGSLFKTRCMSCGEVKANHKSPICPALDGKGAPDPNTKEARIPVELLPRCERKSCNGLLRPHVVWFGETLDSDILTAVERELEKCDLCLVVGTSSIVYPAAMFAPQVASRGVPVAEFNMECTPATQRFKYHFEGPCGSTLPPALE
Description: (§1) Samples were diluted with 0.1% formic acid and filtered using 10 kDa cutoff concentrators. Samples were analyzed on an LC-ESI-MS system consisting of a Prominence HPLC (Shimadzu, Duisburg, Germany) with Sil20AC autosampler connected to an LTQ XL mass spectrometer (Thermo Fisher, Bremen, Germany). […] Extracted ion chromatograms (XICs) with mass windows of ±2 m/z were generated for the acylated and deacylated peptide, and peak areas were determined using automatic peak area detection of the Xcalibur Qual Browser module and further analyzed with Excel (Microsoft, Seattle, USA) or GraFit (Erithacus Software, West Sussex, UK).

Sir2Af2-Met70Arg = Sir2Af2-Met70Arg (Archaeoglobus fulgidus, UniProt O30124, M70R); test: MS-based peptide deacylation assay, Sir2Af2-Met70Arg variant; conditions: for IC50: IC50 nicotinamide inhibition
Description: as §1

Sir2Af2 = molecular target: T4, Sir2Af2 (Archaeoglobus fulgidus, UniProt O30124); test: MS-based peptide deacylation assay, Sir2Af2 wt; format: biochemical; conditions: for IC50: IC50 nicotinamide inhibition; for normalized desuccinylation [%]: succinylated Prx1-Lys197
T4 construct: host or cells: E. coli BL21DE3 Rosetta2
T4 sequence (O30124 1-253): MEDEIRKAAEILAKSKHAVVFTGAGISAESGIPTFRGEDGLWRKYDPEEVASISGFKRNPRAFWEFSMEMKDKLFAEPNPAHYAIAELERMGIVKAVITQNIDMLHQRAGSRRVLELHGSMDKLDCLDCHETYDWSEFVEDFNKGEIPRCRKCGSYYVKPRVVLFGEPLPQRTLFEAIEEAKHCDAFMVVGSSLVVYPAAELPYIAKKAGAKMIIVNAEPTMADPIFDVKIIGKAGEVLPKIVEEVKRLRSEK
Description: as §1

human Sirt5 [2] = molecular target: T5, human Sirt5 (human, UniProt Q9NXA8 37-310, labelled with fluorescein isothiocyanate (sites not given)); test: MST; ligand (peptide) titrated to 100 nM fluorescein-labelled Sirtuin; mixtures preincubated 30 min at room temperature; Monolith NT.115; non-linear fitting in GraFit; conditions: both partners purified
T5 construct: Sirt5, human; a 'gene fragment' cloned into pET151/D-Topo
T5 sequence (looked up): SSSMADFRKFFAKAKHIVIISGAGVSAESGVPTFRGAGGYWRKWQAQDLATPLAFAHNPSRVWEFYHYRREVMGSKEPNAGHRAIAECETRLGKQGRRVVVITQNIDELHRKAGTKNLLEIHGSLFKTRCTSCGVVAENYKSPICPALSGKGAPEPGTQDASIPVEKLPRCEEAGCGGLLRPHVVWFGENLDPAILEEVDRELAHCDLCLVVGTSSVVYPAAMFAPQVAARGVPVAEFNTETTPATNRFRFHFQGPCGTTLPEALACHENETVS

[3] = 25 µM substrate peptide, read-out: Kd for NAD^+ under peptide saturation
[4] = in presence of 0.5 mM nicotinamide, read-out: Kd(NAD^+)
[5] = no nicotinamide, no peptide, read-out: Kd(NAD^+)
[6] = read-out: normalized deacetylation [%]

Chain of Sir2Af2-Met70Arg (O30124 whole entry M70R): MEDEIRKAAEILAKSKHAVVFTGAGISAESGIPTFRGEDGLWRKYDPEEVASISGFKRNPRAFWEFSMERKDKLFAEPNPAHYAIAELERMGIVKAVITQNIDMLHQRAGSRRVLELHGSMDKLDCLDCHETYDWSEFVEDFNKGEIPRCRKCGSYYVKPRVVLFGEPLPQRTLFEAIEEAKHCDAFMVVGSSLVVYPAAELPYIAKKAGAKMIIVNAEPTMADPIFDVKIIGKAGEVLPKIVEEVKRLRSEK

- Kd (human Sirt3; [3]): 260 ± 150 µM
- Kd (human Sirt3; [4]): 830 ± 240 µM
- Kd (human Sirt3; [5]): 710 ± 230 µM
- Kd (human Sirt5 [1]; [3]): 200 ± 70 µM
- Kd (human Sirt5 [1]; [4]): 920 ± 230 µM
- Kd (human Sirt5 [1]; [5]): 980 ± 280 µM
Molecule: NC(=O)c1ccc[n+]([C@@H]2O[C@H](COP(=O)([O-])OP(=O)(O)OC[C@H]3O[C@@H](n4cnc5c(N)ncnc54)[C@H](O)[C@@H]3O)[C@@H](O)[C@H]2O)c1 [NAD^+]
- Km (Sirt3): 100 to 600 µM

Molecule: NC(=O)c1cccnc1 [nicotinamide]
- IC50 (Sirt5Zf): 6900 ± 500 µM
- IC50 (Sir2Af2-Met70Arg; deacetylase activity, acetylated Prx1-Lys197): > 10000 µM
- IC50 (Sir2Af2-Met70Arg; desuccinylase activity, succinylated Prx1-Lys197): 2800 ± 900 µM
- remaining activity at 1 µM (Sir2Af2-Met70Arg; [6]): 100%
- remaining activity at 10 µM (Sir2Af2-Met70Arg; [6]): 98.1%
- remaining activity at 100 µM (Sir2Af2-Met70Arg; [6]): 96.1%
- remaining activity at 500 µM (Sir2Af2-Met70Arg; [6]): 69.7%
- remaining activity at 1000 µM (Sir2Af2-Met70Arg; [6]): 86.4%
- remaining activity at 5000 µM (Sir2Af2-Met70Arg; [6]): 71.4%
- remaining activity at 10000 µM (Sir2Af2-Met70Arg; [6]): 52.6%
- IC50 (Sir2Af2; acetyl-CPS1 substrate): 5800 ± 1600 µM
- IC50 (Sir2Af2; acetyl-Prx1 substrate): 1300 ± 300 µM
- IC50 (Sir2Af2; deacetylation, p53 peptide (Fig. S3)): 2100 ± 150 µM
- IC50 (Sir2Af2; succinyl-CPS1 substrate): 6600 ± 500 µM
- IC50 (Sir2Af2; succinyl-Prx1 substrate): > 10000 µM
- remaining activity at 1 µM (Sir2Af2; NAM 1 µM, acetylated Prx1-Lys197, wt, read-out: normalized deacetylation [%]): 88.7%
- normalized desuccinylation [%] (Sir2Af2; NAM 1 µM, wt): 100.0%
- remaining activity at 10 µM (Sir2Af2; NAM 10 µM, acetylated Prx1-Lys197, wt, read-out: normalized deacetylation [%]): 101%
- normalized desuccinylation [%] (Sir2Af2; NAM 10 µM, wt): 96.1%
- remaining activity at 100 µM (Sir2Af2; NAM 100 µM, acetylated Prx1-Lys197, wt, read-out: normalized deacetylation [%]): 93%
- normalized desuccinylation [%] (Sir2Af2; NAM 100 µM, wt): 95.7%
- remaining activity at 500 µM (Sir2Af2; NAM 500 µM, acetylated Prx1-Lys197, wt, read-out: normalized deacetylation [%]): 65.4%
- remaining activity at 1000 µM (Sir2Af2; NAM 1000 µM, acetylated Prx1-Lys197, wt, read-out: normalized deacetylation [%]): 49.8%
- normalized desuccinylation [%] (Sir2Af2; NAM 1000 µM, wt): 88.3%
- remaining activity at 5000 µM (Sir2Af2; NAM 5000 µM, acetylated Prx1-Lys197, wt, read-out: normalized deacetylation [%]): 30.4%
- normalized desuccinylation [%] (Sir2Af2; NAM 5000 µM, wt): 78.1%
- normalized desuccinylation [%] (Sir2Af2; NAM 10000 µM, wt): 69.1%

- Kd (human Sirt5 [2]): 2.3 ± 1.5 µM
B1: CPS1-Lys527 peptide (FKRGVL(acK)EYGVKV) (peptide)
peptide: FKRGVLK(Ac)EYGVKV
notes: carbamoyl phosphate synthetase 1 (CPS1), stretch around the acetylation site Lys527; also called CPS1 peptide; source: synthetic peptide, bought: GL Biochem (Shanghai)

- Kd (human Sirt5 [2]): 2.1 ± 0.7 µM
B2: ACS2-Lys642 peptide (TRSG(acK)VMR) (peptide)
peptide: TRSGK(Ac)VMR
notes: acetyl-CoA synthetase 2 (ACS2), stretch around the acetylation site Lys642; also called ACS2 peptide; source: synthetic peptide, bought: GL Biochem (Shanghai)
